In the assay the test system is C. albicans. Description: Mouse candidosis model, antimycotic in vivo efficacy. The arrangement: species or system Männliche CF₁-SPF-Mäuse. The note with it: mice infected i.v. with 1-3 x 10⁶ Sprosszellen von C. albicans, surviving/total animals. Here is the method:
Die erfindungsgemäßen Verbindungen wurden in den Applikationsarten i.v., s.c. und orale Gabe am Modell der Mäuse-Candidose auf ihre antimykotische in vivo-Wirksamkeit geprüft: Männliche CF₁-SPF-Mäuse wurden mit 1-3 x 10⁶ Sprosszellen von C. albicans pro Tier durch Injektion der Keimsuspension in phys. NaCl-Lösung (0,2 ml/Tier) in die Schwanzvene infiziert. Nicht behandelte Kontrolltiere entwickeln unter diesen Infektionsbedingungen eine Nierencandidose und sterben zu 95-100% der eingesetzten Tiere innerhalb 6 Tagen p.i. an dieser Infektion. Wurden infizierte Tiere täglich 2 mal, beginnend mit dem Tag der Infektion, mit den erfindungsgemäßen Verbindungen oral oder parenteral in Dosen 2 x 25 bis 2 x 50 mg/kg Körpergewicht über 2 - 5 Tage behandelt, so überleben 60-90% der Tiere die Infektion in gutem Zustand. Die C.albicans-Keimzahlen in den Nieren der infizierten und behandelten Tiere liegen am 4. Tag p.i. durchschnittlich um 2 Zehnerpotenzen unter denen von unbehandelten, infizierten Kontrolltieren. Tabelle A

Molecules are shown by their SMILES. Where a name gives a salt, the structure may show the parent alone.

As to `COC(=O)[C@H]1OCC=C[C@H]1N` [Beispiel 1, (2S,3R)-3-Amino-2,3-dihydro-6H-pyran-2-carbonsäuremethylester Hydrochlorid], the “Zahl der überl. Tiere” value (Dosis 2 × 50 mg/kg/d, App. po) is given as 7/10.

For `N[C@H]1C=CCO[C@H]1C(=O)O` [Beispiel 17, (2R,3S)-3-Amino-2,3-dihydro-6H-pyran-2-carbonsäure-hydrochlorid], the “Zahl der überl. Tiere” value (Dosis 2 × 25 mg/kg/d, App. sc) is given as 3/10.

`COC(=O)[C@H]1OCC=C[C@H]1NC(=O)OC(C)(C)C` [Beispiel VII]: the “Zahl der überl. Tiere” value (Dosis 2 × 50 mg/kg/d, App. po) is 8/10.

These data come from patent EP0538689A1, “Substituted 2,3-dihydropyrans, method for their preparation and their use as medicaments” (BAYER AG, priority 1991, dated 1993).
